Like-named read-outs stand apart in the source and are kept apart here.
What was measured:
[1] = cited from earlier work
[2] = DI water, room temperature overnight
Method: All samples were prepared with DI water, pH 5.5. Controls were prepared similarly without the use of modulators. All test samples were mixed overnight at room temperature. The samples were then filtered and analyzed using HPLC-UV method.

CN(C)CC(c1ccc(O)cc1)C1(O)CCCCC1 (racemic) [desvenlafaxine]
adverse events and discontinuations ([1]; at higher doses (above 50 mg/day)): more frequent | efficacy in clinical studies ([1]; dose of 50-400 mg/day): effective | additional benefit in clinical studies ([1]; doses higher than 50 mg/day): no additional benefit

CN(C)CC(c1ccc(O)cc1)C1(O)CCCCC1.Cl.O (single isomer, unassigned; (-)) [(−)-O-desmethyl venlafaxine HCl monohydrate]
solubility (at about pH 6.0): less than 100 mg/mL | solubility (higher pH, close to the physiological pH): less than 1 mg/mL | solubility (low pH, for example pH 1.0): a few hundred | API Solubility ([2]; control without modulators, sample pH 5.2-5.5): 611 mg/mL | API Solubility ([2]; with Alginic acid, sample pH 2.4-2.7): 568 mg/mL | API Solubility ([2]; with Ascorbic acid, sample pH 2.7-3.0): 597 mg/mL | API Solubility ([2]; with Beta cyclodextrin, sample pH 5.2-5.5): 502 mg/mL | API Solubility ([2]; with Carbopol 941, sample pH 3.2-3.5): 587 mg/mL | API Solubility ([2]; with Citric acid, sample pH 2.1-2.4): 612 mg/mL | API Solubility ([2]; with Eudragit L100, sample pH 3.2-3.5): 547 mg/mL | API Solubility ([2]; with Fumaric acid, sample pH <1.8): 639 mg/mL | API Solubility ([2]; with Gelucire 44/14, sample pH 5.2-5.5): 521 mg/mL | API Solubility ([2]; with HPMCP, sample pH 2.7-3.0): 572 mg/mL | API Solubility ([2]; with Hydroxypropyl beta cyclodextrin, sample pH 5.5-5.7): 589 mg/mL | API Solubility ([2]; with Klucel LF, sample pH 5.5): 536 mg/mL | API Solubility ([2]; with Kollidone 25, sample pH 5.2-5.5): 610 mg/mL | API Solubility ([2]; with Kollidone/Tartaric acid, sample pH 2.1-2.4): 661 mg/mL | API Solubility ([2]; with Lactose, sample pH 5.2-5.5): 665 mg/mL | API Solubility ([2]; with Malic acid, sample pH 1.5-2.0): 677 mg/mL | API Solubility ([2]; with Maltrin M150/Xylitol/Sodium lauryl sulfate/Gelucire 44/14, sample pH 5.2-5.5): 432 mg/mL | API Solubility ([2]; with Maltrin M150, sample pH 5.2-5.5): 565 mg/mL | API Solubility ([2]; with Mannitol/Sorbitol/Tartaric acid/Eudragit L100, sample pH <1.8): 521 mg/mL | API Solubility ([2]; with Mannitol, sample pH 5.2-5.5): 613 mg/mL | API Solubility ([2]; with Methocel E5, sample pH 5.7): 504 mg/mL | API Solubility ([2]; with Methylcyclodextrin, sample pH 5.5): 561 mg/mL | API Solubility ([2]; with PEG 3350, sample pH 5.2-5.5): 602 mg/mL | API Solubility ([2]; with PEG 8000, sample pH 5.2-5.5): 569 mg/mL | API Solubility ([2]; with Poloxamer 188, sample pH 5.2-5.5): 552 mg/mL | API Solubility ([2]; with Sodium Docusate, sample pH 6.3-6.5): 539 mg/mL | API Solubility ([2]; with Sodium lauryl sulfate, sample pH 6.3-6.6): 524 mg/mL | API Solubility ([2]; with Sorbitol, sample pH 5.2-5.5): 549 mg/mL | API Solubility ([2]; with Tartaric acid, sample pH 1.5-2.0): 719 mg/mL | API Solubility ([2]; with Triethyl citrate, sample pH 5.2-5.5): 643 mg/mL | API Solubility ([2]; with Tween 80, sample pH 5.2-5.5): 544 mg/mL | API Solubility ([2]; with Vitamin E TPGS, sample pH 5.2-5.5): 535 mg/mL | API Solubility ([2]; with Xylitol, sample pH 5.2-5.5): 547 mg/mL
